Test results taken from PMC11133627, “CATH-2-derived antimicrobial peptide inhibits multidrug-resistant Escherichia coli infection in chickens” (Frontiers in Cellular and Infection Microbiology, 2024).
Ends that are not written are not given here.

Legend:
E. coli (ATCC 8739) [1] = format: cell-based, Escherichia coli; conditions: ATCC 8739, 1 h
Description: The MICs of the AMPs against E. coli (ATCC 8739) at different temperatures and physiological salt concentrations were evaluated. The thermal stability of the AMPs was assessed by incubating them at a concentration of 500 μg/mL for 1h at 0, 37, and 100°C, using untreated AMPs as a control. The salt ion stability of the AMPs was determined by incubating them at a concentration of 500 μg/mL in solutions of NaCl (150 mM), KCl (4.5 mM), MgCl2 (1 mM), and CaCl2 (2.5 mM) for 1h, using untreated samples as controls. The changes in the MICs of the AMPs were assessed following these experimental procedures.

[2] = tested on: E. coli clinical isolate E18; experiment: microbe, parasite or virus in culture; format: cell-based, Escherichia coli; conditions: for MIC against E. coli E18: clinical isolate E18, 18 h; for MBC against E. coli E18: clinical isolate E18, 24 h
Description: (§1) The minimum inhibitory concentrations (MICs) of the AMPs were determined using the microbroth dilution technique ([van Harten et al., 2021]). One hundred microliters of bacterial suspension at a concentration of 1×10^6 CFU/mL was pipetted into a 96-well plate. Then, 100 μL of AMP or gentamicin at various concentrations was added, while the bacterial suspension without AMPs and blank medium were used as controls.

E. coli (ATCC 8739) [3] = experiment: microbe, parasite or virus in culture; format: cell-based, Escherichia coli; conditions: for MIC against E. coli ATCC 8739: ATCC 8739, 18 h; for MBC against E. coli ATCC 8739: ATCC 8739, 24 h
Description: as §1

[4] = tested on: E. coli clinical isolate E16; experiment: microbe, parasite or virus in culture; format: cell-based, Escherichia coli; conditions: for MIC against E. coli E16: clinical isolate E16, 18 h; for MBC against E. coli E16: clinical isolate E16, 24 h
Description: as §1

[5] = tested on: E. coli clinical isolate E9; experiment: microbe, parasite or virus in culture; format: cell-based, Escherichia coli; conditions: for MIC against E. coli E9: clinical isolate E9, 18 h; for MBC against E. coli E9: clinical isolate E9, 24 h
Description: as §1

[6] = tested on: E. coli clinical isolate E14; experiment: microbe, parasite or virus in culture; format: cell-based, Escherichia coli; conditions: for MIC against E. coli E14: clinical isolate E14, 18 h; for MBC against E. coli E14: clinical isolate E14, 24 h
Description: as §1

[7] = tested on: E. coli clinical isolate E12; experiment: microbe, parasite or virus in culture; format: cell-based, Escherichia coli; conditions: for MIC against E. coli E12: clinical isolate E12, 18 h; for MBC against E. coli E12: clinical isolate E12, 24 h
Description: as §1

[8] = tested on: E. coli clinical isolate E1; experiment: microbe, parasite or virus in culture
Description: as §1

[9] = tested on: E. coli strains (ATCC 8739 and MDR clinical isolates); format: cell-based, Escherichia coli; conditions: ATCC 8739, 18 h
Description: as §1

[10] = tested on: E. coli clinical isolate E12; experiment: Drug-sensitivity test (paper disc, inhibition zone); format: cell-based, Escherichia coli; parameters: key to Drug sensitivity of E. coli E12: R: resistant strains; I: intermediate strains; S: sensitive strains; conditions: 6 mm antibiotic paper on LB agar, 1×10^6 CFU/mL, 24h 37°C, inhibition zone diameter
Description: (§2) E. coli (ATCC 8739) and clinical isolates of E. coli (E1, E9, E12, E14, E16, and E18) were stored at the Animal Biochemical Laboratory of Shanxi Agricultural University and grown in Luria-Bertani (LB) broth as previously reported ([Zhao et al., 2021]). Circular 6 mm paper pieces were prepared with filter paper and autoclaved for sterilization. […] Then, 0.5 mL of antibiotic solution was added to 100 sterilized papers. Subsequently, the paper pieces were fully infiltrated and dried in a vacuum drying oven to produce antibiotic susceptibility papers. The E. coli strain was retrieved from the -20°C freezer and activated by incubating it on LB agar media at 37°C for 24h. Individual colonies were selected and transferred to LB liquid media. Thereafter, the E. coli suspension was obtained by shaking at 37°C and 160 r/min for 18h. The obtained suspension was centrifuged at 5000 r/min for 5min, after which the supernatant was discarded, and the bacteria were resuspended in fresh medium to a concentration of 1×10^6 CFU/mL. Two hundred microliters of the bacterial suspension mentioned above was spread evenly onto LB agar medium. Then, the antibiotic susceptibility papers were placed on the medium surface using sterile tweezers. After 24h of incubation at 37°C, the diameter of the inhibition zone was measured to determine the susceptibility of E. coli to antibiotics.

E. coli (E16) = experiment: Chicken infection with MDR E. coli; format: in vivo
Description: Except for the blank control group injected with 500 μL of normal saline, the other four groups were injected with 500 μL of 3×10^9 CFU/mL E. coli (E16) into the pectoral muscles. […] Clinical symptoms and were observed and documented for the chickens in each group after infection. After 72h, the chickens in each group were euthanized and examined for internal organ damage. Paraffin sections were prepared for microscopic examination of pathological changes. Under sterile conditions, 1 g samples of heart, liver, and spleen were collected, and each sample was supplemented with 20 mL of sterile PBS. After thorough grinding, the sample was diluted to the appropriate multiple, and 100 μL of the diluent was spread onto LB agar medium. The plates were incubated for 24h, after which the colonies were counted.

[11] = tested on: E. coli clinical isolate E14; experiment: Drug-sensitivity test (paper disc, inhibition zone); format: cell-based, Escherichia coli; parameters: key to Drug sensitivity of E. coli E14: R: resistant strains; I: intermediate strains; S: sensitive strains; conditions: 6 mm antibiotic paper on LB agar, 1×10^6 CFU/mL, 24h 37°C, inhibition zone diameter
Description: as §2

[12] = tested on: E. coli clinical isolate E18; experiment: as above; format: cell-based, Escherichia coli; parameters: key: R: resistant strains; I: intermediate strains; S: sensitive strains; conditions: 6 mm antibiotic paper on LB agar, 1×10^6 CFU/mL, 24h 37°C, inhibition zone diameter
Description: as §2

E. coli (ATCC 8739) [13] = experiment: as above; format: cell-based, Escherichia coli; parameters: key: R: resistant strains; I: intermediate strains; S: sensitive strains; conditions: 6 mm antibiotic paper on LB agar, 1×10^6 CFU/mL, 24h 37°C, inhibition zone diameter
Description: as §2

[14] = tested on: E. coli clinical isolate E9; experiment: as above; format: cell-based, Escherichia coli; parameters: key: R: resistant strains; I: intermediate strains; S: sensitive strains; conditions: 6 mm antibiotic paper on LB agar, 1×10^6 CFU/mL, 24h 37°C, inhibition zone diameter
Description: as §2

[15] = tested on: E. coli clinical isolate E1; format: cell-based; parameters: key: R: resistant strains; I: intermediate strains; S: sensitive strains; conditions: 6 mm antibiotic paper on LB agar, 1×10^6 CFU/mL, 24h 37°C, inhibition zone diameter
Description: as §2

[16] = tested on: E. coli clinical isolate E16; experiment: Drug-sensitivity test (paper disc, inhibition zone); format: cell-based, Escherichia coli; parameters: key to Drug sensitivity of E. coli E16: R: resistant strains; I: intermediate strains; S: sensitive strains; conditions: 6 mm antibiotic paper on LB agar, 1×10^6 CFU/mL, 24h 37°C, inhibition zone diameter
Description: as §2

Compound | MIC against E. coli (ATCC 8739), Salt Stability CaCl2 (2.5 mM) (E. coli (ATCC 8739) [1]) [µg/mL] | MIC against E. coli (ATCC 8739), Salt Stability KCl (4.5 mM) (E. coli (ATCC 8739) [1]) [µg/mL] | MIC against E. coli (ATCC 8739), Salt Stability MgCl2 (1 mM) (E. coli (ATCC 8739) [1]) [µg/mL] | MIC against E. coli (ATCC 8739), Salt Stability NaCl (150 mM) (E. coli (ATCC 8739) [1]) [µg/mL] | MIC against E. coli (ATCC 8739), Thermal Stability 0°C (E. coli (ATCC 8739) [1]) [µg/mL] | MIC against E. coli (ATCC 8739), Thermal Stability 37°C (E. coli (ATCC 8739) [1]) [µg/mL] | MIC against E. coli (ATCC 8739), Thermal Stability 100°C (E. coli (ATCC 8739) [1]) [µg/mL] | MIC against E. coli E18 [2] [µg/mL] | MBC against E. coli E18 [2] [µg/mL] | MIC against E. coli ATCC 8739 (E. coli (ATCC 8739) [3]) [µg/mL] | MBC against E. coli ATCC 8739 (E. coli (ATCC 8739) [3]) [µg/mL] | MIC against E. coli E16 [4] [µg/mL] | MBC against E. coli E16 [4] [µg/mL] | MIC against E. coli E9 [5] [µg/mL] | MBC against E. coli E9 [5] [µg/mL] | MIC against E. coli E14 [6] [µg/mL] | MBC against E. coli E14 [6] [µg/mL] | MIC against E. coli E12 [7] [µg/mL] | MBC against E. coli E12 [7] [µg/mL] | MIC against E. coli E1 ([8]; clinical isolate E1, 18 h) [µg/mL] | other results
RFGRFLRKIRFFRLK [C2-5] | 8 | 4 | 4 | 4 | 1 | 1 | 4 | 16 | 32 | 1 | 1 | 16 | 16 | 64 | 128 | 8 | 8 | 8 | 8 | 8 | MBC against E. coli E1 ([8]; clinical isolate E1, 24 h): 8 µg/mL
RFGRNLRKIRRFWPK [C2-4] | 32 | 32 | 16 | 32 | 16 | 16 | 16 | 128 | 128 | 16 | 16 | 64 | 64 | 64 | 128 | 32 | 64 | 16 | 32 | 128 | MBC against E. coli E1 ([8]; clinical isolate E1, 24 h): 128 µg/mL
RFGRFLRKIRRFIPK [C2-1] | 8 | 2 | 2 | 0.5 | 2 | 2 | 2 | 2 | 4 | 2 | 4 | 16 | 64 | 0.5 | 1 | 16 | 16 | 1 | 1 |  | MIC range over E. coli strains [9]: 0.5 to 16 µg/mL; MBC against E. coli E1 ([8]; 50 μL from fully inhibited wells plated on LB agar, colonies counted after 24h 37°C): 16 µg/mL; MIC against E. coli E1 ([8]; microbroth dilution, 1×10^6 CFU/mL, 37°C 18h, turbidity): 16 µg/mL
CCN1CCN(c2cc3c(cc2F)c(=O)c(C(=O)O)cn3C2CC2)CC1 [enrofloxacin] |  |  |  |  |  |  |  |  |  |  |  |  |  |  |  |  |  |  |  |  | Drug sensitivity of E. coli E12 [10]: R; 3-day mortality rate (E. coli (E16); 200 μg/mL, 500 μL into pectoral muscle 4h after 1.5×10^9 CFU E16): 50%; Survival rate compared with untreated group (in words) (E. coli (E16); 3 days): no difference in survival rate; Bacterial loads in the heart, liver and spleen (in words) (E. coli (E16); after 3 days of infection, vs infected untreated): affected only the heart bacterial load; Drug sensitivity of E. coli E14 [11]: R; Drug sensitivity of E. coli E18 [12]: R; Drug sensitivity of E. coli ATCC 8739 (E. coli (ATCC 8739) [13]): S; Drug sensitivity of E. coli E9 [14]: R; Drug sensitivity of E. coli E1 [15]: R; Drug sensitivity of E. coli E16 [16]: R
RFGRFLRKIRRFRPK [CATH-2 (1-15), reference compound] | 64 | 16 | 16 | 32 | 64 | 64 | 32 | 64 | 64 | 64 | 64 | 32 | 64 | 4 | 4 | 64 |  | 8 | 8 |  | 
RFGRHLRKIIRFRIK [C2-3] | 8 | 4 | 4 | 16 | 16 | 16 | 8 | 16 | 32 | 16 | 16 | 16 | 64 | 2 | 4 | 8 | 8 | 1 | 1 | 32 | MBC against E. coli E1 ([8]; clinical isolate E1, 24 h): 64 µg/mL
